The values that follow come from US11702404B2, “GLP-1R modulating compounds” (priority 2019, dated 2023).

For orientation: EC50 means the midpoint of the concentration-response curve.

The first series deals with GLP-1R (Homo sapiens, UniProt P43220). Briefly: GLP-1R activation: cAMP increase in CHO cells stably expressing GLP-1R. Format: cell-based. Conditions: cAMP increase, CHO cells stably expressing GLP-1R, 10 point dose response, 30 minutes incubation; read-out: EC50.
Chain of GLP-1R (P43220 24-463): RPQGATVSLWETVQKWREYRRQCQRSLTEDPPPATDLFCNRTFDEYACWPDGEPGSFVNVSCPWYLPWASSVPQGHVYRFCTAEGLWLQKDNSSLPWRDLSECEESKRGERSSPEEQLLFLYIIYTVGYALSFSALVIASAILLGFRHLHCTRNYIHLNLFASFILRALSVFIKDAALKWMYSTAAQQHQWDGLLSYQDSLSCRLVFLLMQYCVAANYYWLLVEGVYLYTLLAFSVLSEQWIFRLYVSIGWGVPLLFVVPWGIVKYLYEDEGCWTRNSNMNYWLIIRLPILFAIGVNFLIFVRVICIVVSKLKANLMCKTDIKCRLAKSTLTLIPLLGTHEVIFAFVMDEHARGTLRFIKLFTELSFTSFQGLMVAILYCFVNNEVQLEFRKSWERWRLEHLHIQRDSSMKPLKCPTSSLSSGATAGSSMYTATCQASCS
Take `CC(C)(CF)Cn1c(Cc2ccc(-c3cccc(OCc4ccc(C#N)cc4F)n3)cc2F)nc2ccc(C(=O)O)cc21` [Example 11, 2-(4-(6-((4-cyano-2-fluorobenzyl)oxy)pyridin-2-yl)-2-fluorobenzyl)-1-(3-fluoro-2,2-dimethylpropyl)-1H-benzo[d]imidazole-6-carboxylic acid]: the half-maximal effective concentration (EC50) was determined as 2.7 nM.
The same measure, in the same setting: the value for `CC(C)(Cn1c(Cc2ccc(-c3cccc(OCc4ccc(C#N)cc4F)n3)cc2F)nc2ccc(C(=O)O)cc21)C(F)F` [Example 12, 2-(4-(6-((4-cyano-2-fluorobenzyl)oxy)pyridin-2-yl)-2-fluorobenzyl)-1-(3,3-difluoro-2,2-dimethylpropyl)-1H-benzo[d]imidazole-6-carboxylic acid] was 1.77 nM; that for `COCCn1c(Cc2ncc(-c3cccc(OCc4ccc(C#N)cc4F)n3)cn2)nc2ccc(C(=O)O)cc21` [Example 58, 2-((5-(6-((4-cyano-2-fluorobenzyl)oxy)pyridin-2-yl)pyrimidin-2-yl)methyl)-1-(2-methoxyethyl)-1H-benzo[d]imidazole-6-carboxylic acid] was 28.8 nM.
On the same count and under the same terms, the value for `COCCn1c(Cc2ccc(-c3cccc(OCc4ccc(C#N)c5c4OCCC5)n3)cc2F)nc2ccc(C(=O)O)cc21` [Example 144, 2-(4-(6-((5-cyanochroman-8-yl)methoxy)pyridin-2-yl)-2-fluorobenzyl)-1-(2-methoxyethyl)-1H-benzo[d]imidazole-6-carboxylic acid] was 20.7 nM; that for `COCCn1c(Cc2ccc(-c3cccc(OCc4cccc5c4OCCN5C)n3)cc2F)nc2ccc(C(=O)O)cc21` [Example 149, 2-(2-fluoro-4-(6-((4-methyl-3,4-dihydro-2H-benzo[b][1,4]oxazin-8-yl)methoxy)pyridin-2-yl)benzyl)-1-(2-methoxyethyl)-1H-benzo[d]imidazole-6-carboxylic acid] was 2040 nM; that for `COCCn1c(Cc2ccc(-c3cccc(OCc4ccc(C(F)F)cc4F)n3)cc2F)nc2ccc(C(=O)O)cc21` [Example 150, 2-(4-(6-((4-(difluoromethyl)-2-fluorobenzyl)oxy)pyridin-2-yl)-2-fluorobenzyl)-1-(2-methoxyethyl)-1H-benzo[d]imidazole-6-carboxylic acid] was 3.35 nM.
For `COCCn1c(Cc2ccc(-c3cccc(OCc4ccc(Br)c5nsnc45)n3)cc2F)nc2ccc(C(=O)O)cc21` [Example 151, 2-(4-(6-((7-bromobenzo[c][1,2,5]thiadiazol-4-yl)methoxy)pyridin-2-yl)-2-fluorobenzyl)-1-(2-methoxyethyl)-1H-benzo[d]imidazole-6-carboxylic acid], the EC50 worked out at 7.93 nM.
On the same count and under the same terms, with `COCCn1c(Cc2ccc(-c3cccnc3OCc3ccccc3)cc2F)nc2ccc(C(=O)O)cc21` [Example 183, 2-(4-(2-(benzyloxy)pyridin-3-yl)-2-fluorobenzyl)-1-(2-methoxyethyl)-1H-benzo[d]imidazole-carboxylic acid] the figure was 3960 nM.
On the same count and under the same terms, the value for `COCCn1c(Cc2ccc(-c3cccc(OCC(=O)c4ccc(OC)cc4)n3)cc2F)nc2ccc(C(=O)O)cc21` [Example 215, 2-(2-fluoro-4-(6-(2-(4-methoxyphenyl)-2-oxoethoxy)pyridin-2-yl)benzyl)-1-(2-methoxyethyl)-1H-benzo[d]imidazole-6-carboxylic acid] was 62.7 nM; that for `COCCn1c(Cc2ccc(-c3cccc(OCc4cnc(Cl)nc4OC)n3)cc2F)nc2ccc(C(=O)O)cc21` [Example 227, 2-(4-(6-((2-chloro-4-methoxypyrimidin-5-yl)methoxy)pyridin-2-yl)-2-fluorobenzyl)-1-(2-methoxyethyl)-1H-benzo[d]imidazole-6-carboxylic acid] was 14.3 nM; that for `COc1cc(Cl)ccc1COc1nccc(-c2cc(F)c(Cc3nc4ccc(C(=O)O)cc4n3CC3(CC#N)CC3)cc2F)n1` [Example 446, 2-(4-(2-((4-chloro-2-methoxybenzyl)oxy)pyrimidin-4-yl)-2,5-difluorobenzyl)-1-((1-(cyanomethyl)cyclopropyl)methyl)-1H-benzo[d]imidazole-6-carboxylic acid] was 0.15 nM.
On the same count and under the same terms, the value for `NC(=O)c1ccc(COc2cc(-c3ccc(Cc4nc5ccc(C(=O)O)cc5[nH]4)c(F)c3)ccc2F)c(F)c1` [Example 469, 2-((3′-((4-carbamoyl-2-fluorobenzyl)oxy)-3,4′-difluoro-[1,1′-biphenyl]-4-yl)methyl)-1H-benzo[d]imidazole-6-carboxylic acid] was no less than 1000 nM.
Regarding `COCCn1c(Cc2cc(F)c(-c3nc(OCc4ccc(C#N)cc4F)c(F)cc3F)cc2F)nc2ccc(C(=O)O)cc21` [Example 538, 2-(4-(6-((4-cyano-2-fluorobenzyl)oxy)-3,5-difluoropyridin-2-yl)-2,5-difluorobenzyl)-1-(2-methoxyethyl)-1H-benzo[d]imidazole-6-carboxylic], the EC50 is 4250 nM.
`CO[C@H]1C[C@@H](n2c(Cc3cc(F)c(-c4cccc(OCc5ccc(C#N)cc5F)n4)cc3F)nc3ccc(C(=O)O)cc32)C1` [Example 566, 2-(4-(6-((4-cyano-2-fluorobenzyl)oxy)pyridin-2-yl)-2,5-difluorobenzyl)-1-((1s,3s)-3-methoxycyclobutyl)-1H-benzo[d]imidazole-6-carboxylic acid]: the EC50 was 255 nM.
On the same count and under the same terms, with `N#Cc1ccc(COc2cccc(-c3cc(F)c(Cc4nc5c(F)cc(C(=O)O)cc5n4Cc4ncco4)cc3F)n2)c(F)c1` [Example 584, 2-(4-(6-((4-cyano-2-fluorobenzyl)oxy)pyridin-2-yl)-2,5-difluorobenzyl)-4-fluoro-1-(oxazol-2-ylmethyl)-1H-benzo[d]imidazole-6-carboxylic acid] the figure was 0.23 nM; with `COCCn1c(Cc2ccc(-c3cccc(OCc4nnc(Cl)s4)n3)cc2F)nc2ccc(C(=O)O)cc21` [Example 590, 2-(4-(6-((5-chloro-1,3,4-thiadiazol-2-yl)methoxy)pyridin-2-yl)-2-fluorobenzyl)-1-(2-methoxyethyl)-1H-benzo[d]imidazole-6-carboxylic acid], 3190 nM; with `N#Cc1ccc(COc2nccc(-c3ccc(Cc4nc5c(F)cc(C(=O)O)cc5n4Cc4ncco4)cc3F)n2)c(F)c1` [Example 618], 1.48 nM.
Turning to `N#Cc1ccc(COc2cccc(-c3cc(F)c(Cc4nc5ccc(C(=O)O)cc5n4CC4(CO)CC4)cc3F)n2)c(F)c1` [Example 637], the EC50 is 1.18 nM.
The same measure, in the same setting: with `CC12COC(Cn3c(Cc4cc(F)c(-c5cccc(OCc6ccc(C#N)cc6F)n5)cc4F)nc4ccc(C(=O)O)cc43)(C1)C2` [Example 741] the figure was 22.6 nM; with `O=C(O)c1ccc2nc(Cc3cc(F)c(-c4nc(OCc5ccc(C(F)F)cc5F)ccc4F)cc3F)n(C[C@@H]3CCO3)c2c1` [Example 787], 0.08 nM; with `COCCn1c(Cc2cc(F)c(-c3cccc(OCc4ccc(C#N)cc4F)n3)c(F)c2F)nc2ccc(C(=O)O)cc21` [Example 856, 2-(4-(6-((4-cyano-2-fluorobenzyl)oxy)pyridin-2-yl)-2,3,5-trifluorobenzyl)-1-(2-methoxyethyl)-1H-benzo[d]imidazole-6-carboxylic acid], 4.55 nM.
Same read-out and setting: the value for `COCCn1c(Cc2cc(F)c(-c3cccc(OCc4ccc(C(F)(F)F)s4)n3)cc2F)nc2ccc(C(=O)O)cc21` [Example 864] was 3.71 nM; that for `COC1(Cn2c(Cc3cc(F)c(-c4cccc(OCc5ccc(C#N)cc5F)n4)cc3F)nc3ccc(C(=O)O)cc32)CN(C(=O)C2CC2)C1` [Example 889, 2-(4-(6-((4-cyano-2-fluorobenzyl)oxy)pyridin-2-yl)-2,5-difluorobenzyl)-1-((1-(cyclopropanecarbonyl)-3-methoxyazetidin-3-yl)methyl)-1H-benzo[d]imidazole-6-carboxylic acid] was 69.5 nM.

Tested on in a further series: not listed separately
Briefly: Microsomal stability, human liver microsomes (predicted hepatic clearance). Conditions: predicted from in vitro microsomal stability data.
Consider `N#Cc1ccc(COc2cccc(-c3ccc(Cc4nc5ccc(C(=O)O)cc5n4CC4CCO4)c(F)c3)n2)c(F)c1` (single isomer, unassigned) [Example 67, 2-(4-(6-((4-Cyano-2-fluorobenzyl)oxy)pyridin-2-yl)-2-fluorobenzyl)-1-(oxetan-2-ylmethyl)-1H-benzo[d]imidazole-6-carboxylic acid], for which the “Predicted Hepatic Clearance (Pred. Cl.)” value was 5.17 mL/min/kg.
On the same count and under the same terms, with `N#Cc1ccc(COc2cccc(-c3ccc(Cc4nc5ccc(C(=O)O)cc5n4CC4CCO4)c(F)c3)n2)c(F)c1` (single isomer, unassigned) [Example 68, 2-(4-(6-((4-Cyano-2-fluorobenzyl)oxy)pyridin-2-yl)-2-fluorobenzyl)-1-(oxetan-2-ylmethyl)-1H-benzo[d]imidazole-6-carboxylic acid] the figure was less than 1.83 mL/min/kg.
On the same count and under the same terms, with `COCCn1c(C(C)c2ccc(-c3cccc(OCc4ccc(C#N)cc4F)n3)cc2)nc2ccc(C(=O)O)cc21` (single isomer, unassigned) [Example 439, 2-(1-(4-(6-((4-cyano-2-fluorobenzyl)oxy)pyridin-2-yl)phenyl)ethyl)-1-(2-methoxyethyl)-1H-benzo[d]imidazole-6-carboxylic acid] the figure was 6 mL/min/kg.
Take `N#Cc1ccc(COc2cccc(-c3ccc(Cc4nc5ccc(C(=O)O)cc5n4CC4CCO4)c(F)c3)n2)c(F)c1` (centres unmarked) [Example 15, 2-(4-(6-((4-cyano-2-fluorobenzyl)oxy)pyridin-2-yl)-2-fluorobenzyl)-1-(oxetan-2-ylmethyl)-1H-benzo[d]imidazole-6-carboxylic acid]: the “Predicted Hepatic Clearance (Pred. Cl.)” value was 3.3 mL/min/kg.
The same measure, in the same setting: the value for `COCCn1c(Cn2cc(-c3csc(OCc4ccc(C#N)cc4F)n3)cn2)nc2ccc(C(=O)O)cc21` [Example 78, 2-((4-(2-((4-cyano-2-fluorobenzyl)oxy)thiazol-4-yl)-1H-pyrazol-1-yl)methyl)-1-(2-methoxyethyl)-1H-benzo[d]imidazole-6-carboxylic acid] was 7 mL/min/kg; that for `COCCn1c(Cc2ccc(-c3cc(-c4cnn(C)c4)cc(OCc4ccc(C#N)cc4F)n3)cc2F)nc2ccc(C(=O)O)cc21` [Example 99, 2-(4-(6-((4-cyano-2-fluorobenzyl)oxy)-4-(1-methyl-1H-pyrazol-4-yl)pyridin-2-yl)-2-fluorobenzyl)-1-(2-methoxyethyl)-1H-benzo[d]imidazole-6-carboxylic acid] was 2.33 mL/min/kg.
